Like-named read-outs stand apart in the source and are kept apart here.
Legend:
in vitro = details: African monkey
PL^Pro = PL^Pro (Severe acute respiratory syndrome coronavirus 2, UniProt P0DTD1); experiment: SARS-CoV-2 PLpro screening (Ac-LRGG-ACC substrate); type: biochemical; details: read-out: PL^Pro (%inh)@10μM
recombinant M^Pro = recombinant M^Pro (Severe acute respiratory syndrome coronavirus 2, UniProt P0DTD1); experiment: SARS-CoV-2 Mpro screening and IC50 determination (QS1 fluorogenic substrate, Drag assay); type: biochemical; details: for inhibition at 10 µM: read-out: M^Pro (%inh)@10μM
[1] = M^Pro IC50 (μM), recombinant M^Pro, 20 μM QS1 (Ac-Abu-Tle-Leu-Gln-ACC) substrate, Table 1
[2] = M^Pro IC50 (μM), recombinant M^Pro, 20 μM QS1 substrate, Table 3
[3] = recombinant M^Pro, 20 μM QS1 (Ac-Abu-Tle-Leu-Gln-ACC) substrate, Table 1, read-out: M^Pro IC50

## COc1ccc(-c2ccc(C(=O)N[C@@H](CC(C)C)C(=O)N[C@H](C#N)C[C@@H]3CCNC3=O)cc2)cc1OC [6f]
In vitro
  CC50: > 100 µM
PL^Pro
  inhibition at 10 µM: < 50%
Recombinant M^Pro; M^Pro IC50 (μM), Table 2
  IC50: 0.859 µM
Recombinant M^Pro; [1]
  IC50: 0.859 µM
Recombinant M^Pro
  inhibition at 10 µM: > 95%

## CC(C)(C)[C@H](NC(=O)C(F)(F)F)C(=O)N1C[C@H]2[C@@H]([C@H]1C(=O)N[C@H](C#N)C[C@@H]1CCNC1=O)C2(C)C [nirmatrelvir, reference compound]
In vitro
  CC50: > 100 µM

## COc1cccc(-c2ccc(C(=O)N[C@@H](CC(C)C)C(=O)N[C@H](C#N)C[C@@H]3CCNC3=O)cc2)c1 [6e]
In vitro
  CC50: > 100 µM
PL^Pro
  inhibition at 10 µM: < 50%
Recombinant M^Pro; M^Pro IC50 (μM), Table 2
  IC50: 0.786 µM
Recombinant M^Pro; [1]
  IC50: 0.786 µM
Recombinant M^Pro
  inhibition at 10 µM: > 95%

## COc1ccc(-c2ccc(C(=O)N[C@@H](CC(C)C)C(=O)N[C@H](C#N)C[C@@H]3CCNC3=O)c(C)c2)cc1 [18k]
In vitro
  CC50: > 100 µM
Recombinant M^Pro; [2]
  IC50: 0.085 µM

## CC(C)C[C@H](NC(=O)c1ccc(-c2ccc3c(cnn3C)c2)cc1F)C(=O)N[C@H](C#N)C[C@@H]1CCNC1=O [18c]
In vitro
  CC50: > 100 µM
Recombinant M^Pro; [2]
  IC50: 0.307 µM

## CC(C)C[C@H](NC(=O)c1ccc(-c2cccc3nn(C)cc23)cc1Cl)C(=O)N[C@H](C#N)C[C@@H]1CCNC1=O [18p]
In vitro
  CC50: > 100 µM
Recombinant M^Pro; [2]
  IC50: 0.068 µM

## CC(C)C[C@H](NC(=O)c1ccc(-c2cccc3nn(C)cc23)cc1)C(=O)N[C@H](C#N)C[C@@H]1CCNC1=O [6j]
In vitro
  CC50: > 100 µM
PL^Pro
  inhibition at 10 µM: < 50%
Recombinant M^Pro; M^Pro IC50 (μM), Table 2
  IC50: 0.622 µM
Recombinant M^Pro; [1]
  IC50: 0.622 µM
Recombinant M^Pro
  inhibition at 10 µM: > 95%

## COc1ccc(-c2ccc(C(=O)N[C@@H](CC(C)C)C(=O)N[C@H](C#N)C[C@@H]3CCNC3=O)c(C(F)(F)F)c2)cc1 [18m]
In vitro
  CC50: 70.6 µM
Recombinant M^Pro; [2]
  IC50: 0.096 µM

## CC(C)C[C@H](NC(=O)c1ccc(-c2ccc3c(cnn3C)c2)cc1)C(=O)N[C@H](C#N)C[C@@H]1CCNC1=O [6l]
In vitro
  CC50: > 100 µM
PL^Pro
  inhibition at 10 µM: < 50%
Recombinant M^Pro
  inhibition at 10 µM: > 95%
Recombinant M^Pro; read-out: M^Pro IC50, Table 2
  IC50: 0.56 µM
Recombinant M^Pro; read-out: M^Pro IC50, recombinant M^Pro, 20 μM QS1 (Ac-Abu-Tle-Leu-Gln-ACC) substrate, Table 1
  IC50: 0.56 µM

## N#C[C@H](C[C@@H]1CCNC1=O)NC(=O)[C@H](CC1CCCCC1)NC(=O)c1ccc(-c2cncc(Cl)c2)cc1 [12o]
PL^Pro
  inhibition at 10 µM: < 50%
Recombinant M^Pro
  inhibition at 10 µM: < 95%
Recombinant M^Pro; [3]
  IC50: 2.4 µM

## COc1ccc(-c2ccc(C(=O)N[C@@H](CC(C)C)C(=O)N[C@H](C#N)C[C@@H]3CCNC3=O)cc2)cc1 [6d]
PL^Pro
  inhibition at 10 µM: < 50%
Recombinant M^Pro
  inhibition at 10 µM: > 95%
Recombinant M^Pro; [3]
  IC50: 0.735 µM

## CC(C)C[C@H](NC(=O)c1ccc(-c2ccc3c(cnn3C)c2)cc1Cl)C(=O)N[C@H](C#N)C[C@@H]1CCNC1=O [18o]
In vitro
  CC50: 83.5 µM
Recombinant M^Pro; [2]
  IC50: 0.052 µM

## CC(C)C[C@@H](NC(=O)c1ccc(Br)cc1)C(=O)N[C@H](C#N)C[C@@H]1CCNC1=O [11b]
PL^Pro
  inhibition at 10 µM: < 50%
Recombinant M^Pro
  inhibition at 10 µM: < 95%

## CC(C)C[C@H](NC(=O)c1ccc(-c2ccc3cnn(C)c3c2)cc1Cl)C(=O)N[C@H](C#N)C[C@@H]1CCNC1=O [18q]
In vitro
  CC50: 77.4 µM
Recombinant M^Pro; [2]
  IC50: 0.053 µM

## CCC[C@H](NC(=O)c1ccc(-c2cncc(Cl)c2)cc1)C(=O)N[C@H](C#N)C[C@@H]1CCNC1=O [12h]
PL^Pro
  inhibition at 10 µM: < 50%
Recombinant M^Pro
  inhibition at 10 µM: > 95%
Recombinant M^Pro; [3]
  IC50: 8.95 µM

From article PMC12516390 (ACS Medicinal Chemistry Letters, 2025)
